The results in this text go back to ChEMBL document CHEMBL5226299, “Targeting Lysosomal Degradation Pathways: New Strategies and Techniques for Drug Discovery” (J Med Chem, 2021).

The target in the assay is Methionine aminopeptidase 2 (Homo sapiens) (UniProt P50579). Put plainly: Induction of MetAP-2 degradation in human HeLa cells at 10 uM relative to control. In kind it is cell-based.
Sequence of Methionine aminopeptidase 2 (Homo sapiens) (P50579 2-478 limits assumed): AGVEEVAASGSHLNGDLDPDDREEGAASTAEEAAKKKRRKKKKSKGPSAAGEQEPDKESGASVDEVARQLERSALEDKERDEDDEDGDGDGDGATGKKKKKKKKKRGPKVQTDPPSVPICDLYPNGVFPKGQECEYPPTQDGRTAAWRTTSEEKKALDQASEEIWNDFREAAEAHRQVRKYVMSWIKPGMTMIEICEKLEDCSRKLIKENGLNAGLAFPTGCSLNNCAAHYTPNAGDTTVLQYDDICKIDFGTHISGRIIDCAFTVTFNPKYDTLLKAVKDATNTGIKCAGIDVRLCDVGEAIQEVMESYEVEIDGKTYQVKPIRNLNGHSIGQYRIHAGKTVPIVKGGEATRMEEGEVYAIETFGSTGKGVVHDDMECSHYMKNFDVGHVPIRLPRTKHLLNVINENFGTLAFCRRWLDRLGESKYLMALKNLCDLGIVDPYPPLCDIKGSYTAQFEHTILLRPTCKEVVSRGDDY

Compound `CO[C@@H]1[C@H](OC(=O)NCCCOCCOCCOCCCNC(=O)[C@H](CSc2nc3c(=O)[nH]c(N)nc3n2Cc2ccc(F)cc2)NC(C)=O)CC[C@]2(CO2)[C@H]1[C@@]1(C)O[C@@H]1CC=C(C)C` returned an Activity of 80%.
